Laboratory results taken from US20130130928A1, “METHODS FOR PREDICTING OR MONITORING WHETHER A PATIENT AFFECTED BY A CANCER IS RESPONSIVE TO A TREATMENT WITH A MOLECULE OF THE TAXOID FAMILY” (INSTITUT GUSTAVE ROUSSY, priority 2010, published 2013).

Tests used:
[1] = test system: IGR-CaP1 docetaxel-resistant cell lines (IGR-CaP1-R); assay: Genome-wide microarray gene expression analysis of docetaxel-resistant vs parental IGR-CaP1 cells, first analysis (Tables 1-4, FC exp1); format: cell-based, human
Method: (§1) The human androgen-independent IGR-CaP1 cell line recently obtained for a localized prostate cancer was maintained in RPMI medium complemented with 10% FBS and antibiotics.
Quality of RNA preparation, based on the RNA Integrity Number (RIN), was assessed using the Agilent RNA 6000 Nano Kit as developed on the Agilent 2100 Bioanalyzer device (Agilent Technologies, Palo Alto, Calif.). […] RNA samples were frozen in nuclease-free water (Qiagen).
Parental and resistant-cell line total RNAs were directly compared by using Agilent oligonucleotide dual-color technology, running dye-swap and duplicate experiments. Total RNA from the parental IGR-CaP1 cell line without treatment was used as the RNA reference. […] Probe synthesis and labeling were performed by Agilent's Low Fluorescent Low input Linear Amplification Kit. Hybridization was performed on the Agilent 4×44K Human 1A (G4112F) long (60-bp) oligonucleotide microarrays (Agilent Technologies) by using reagents and protocols provided by the manufacturer. Feature extraction software provided by Agilent (Version A.9.5.3.1) was used to quantify the intensity of fluorescent images and to normalize results using the linear and lowess subtraction method.
The methodology described below is based on a dose-dependent gene expression changes:
Under the hypothesis of a clone enrichment, and/or a biological effect due to drug increasing, monotonically increasing or decreasing expression profiles were identified by using a 5-parameters logistic regression model:
where yg is the log.ratio of treatment vs. reference for the gene g, x is the drug-dose in Log10[nM], and B, T, xc, p are, respectively, the estimated minimal value, the estimated maximal value, the slope at the inflexion point, and the asymmetric parameter. For each probe, parameters were first initialized with the observed values, and then optimized by an iterative method of gradient (the Newton-Raphson method). The aim of this iterative algorithm is to minimize the weighted quadratic sum of residuals:
The performance of the fitting was measured, for each probe, by a robust linear regression (RLR) of the fitted values against the observed values. Probes potentially associated with the drug increasing were selected on the 2 following criterion:
RLRp-value ≦1e-5, and |fold change|≧2 between the first and the last dose (resp: 5 and 200 nM), considering the fold change estimated by the 5-parameters logistic regression model. Calculations and graphic visualizations were performed in R (free software version 2.6.2), by using the package “MASS” (version 7.2-40), and supplemental scripts, in R language, written in the lab (F. Commo).
Untreated IGR-CaP1 parental cell lines were used as baseline. Such genes were those for which expression changes (at least one probe in case of multiple probe sets per gene) appeared as drug-dependent, in the sense of criterion described above.

IGR-CaP1 cells = assay: Generation of acquired resistance to docetaxel in vitro (dose-escalation selection of clones); format: cell-based, human; conditions: selection with docetaxel, before proliferation was regained
Source text: The prostate cancer cell line IGR-CaP1 is described in CNCM deposit number I-4126 on Feb. 10, 2009.
as §1
Prostate cancer IGR-CaP1 cells were used to generate successive docetaxel-resistant cell lines. […] Cell cycle analysis was done to show acquired resistance to drug.

prostate cancer = conditions: cited from earlier work
[2] = test system: docetaxel resistant cells (PC3 and DU145); conditions: cited from earlier work
[3] = IGR-CaP1-R 100 nM docetaxel clone vs parental IGR-CaP1

Structure (SMILES): CC(=O)O[C@@]12CO[C@@H]1C[C@H](O)[C@@]1(C)C(=O)[C@H](O)C3=C(C)[C@@H](OC(=O)[C@H](O)[C@@H](NC(=O)OC(C)(C)C)c4ccccc4)C[C@@](O)([C@@H](OC(=O)c4ccccc4)[C@H]21)C3(C)C [docetaxel]
- ZFP62 gene expression 5 nM ([1]; IGR-CaP1-R 5 nM docetaxel clone vs parental IGR-CaP1): 0.190
- ZFP62 gene expression 12 nM ([1]; IGR-CaP1-R 12 nM docetaxel clone vs parental IGR-CaP1): 0.246
- ZFP62 gene expression 25 nM ([1]; IGR-CaP1-R 25 nM docetaxel clone vs parental IGR-CaP1): 0.278
- ZFP62 gene expression 50 nM ([1]; IGR-CaP1-R 50 nM docetaxel clone vs parental IGR-CaP1): 0.402
- LRRC44 gene expression 100 nM [1, 3]: 0.139
- ZFP62 gene expression 100 nM [1, 3]: 0.482
- ZFP62 gene expression 200 nM ([1]; IGR-CaP1-R 200 nM docetaxel clone vs parental IGR-CaP1): 0.503
- cell death on addition of docetaxel (IGR-CaP1 cells): a large majority of cells initially underwent cell death
- patients developing resistance to the chemotherapy (prostate cancer; from the beginning or in a secondary way): almost half
- toxicity (prostate cancer; patients): great toxicity
- survival (prostate cancer; prostate cancer patients, TAX 327 and SWOG 99-16): increase in survival

Structure (SMILES): Oc1ccc(C=Cc2cc(O)cc(O)c2)cc1 [resveratrol]
- apoptosis [2]: increase of apoptosis
- clusterin expression [2]: decreased expression of clusterin
